Laboratory results taken from patent US20210238201A1, “ANTIMICROBIAL COMPOUNDS AND COMPOSITIONS” (AGROFRESH INC., priority 2020, published 2021).
Converted amounts (≈) assume the structure as drawn.

Legend:
Glomerella cingulata = test: in vitro inhibition assay for volatile antimicrobial compounds (headspace, PDA agar); format: cell-based; details: Colletotrichum gloeosporioides; volatile headspace exposure
Penicillium expansum = test: as above; format: cell-based; details: volatile headspace exposure
Experimental: [The procedure below names another organism; the source lists this organism under the same test.] (§1) 12-well (6.5 ml volume per well) microtiter plates are used for the in vitro inhibition assay for volatile antimicrobial compounds. A 3-ml volume of full-strength Potato Dextrose Agar (PDA) is added to each well. After cooling, 1 μL of 1×10^5 spores per ml Botrytis cinerea (ATCC #204446) spore suspension is spot pipetted to the agar in the center of the well. Whatman #1 filter disks (1.5 cm; Cat. No. 1001-0155) are placed on the underside of a polyethylene PCR plate sealing film. For determination of the minimum inhibitory concentration (MIC), test compounds are diluted in acetone, in duplicate, and 50 μli of the compound solution is added to disks at concentrations that can vary from 0.001 mg/l to 1142.9 mg/l. The acetone is permitted to evaporate for 5 minutes. The headspace around the Botrytis cinerea inoculum is then sealed inside the well by the film with the adhering disk containing the antimicrobial, anti-decay, anti-spoilage, or pathogen control agent. Plates are inverted to prevent any possibility of the chemical from flaking from the disk and falling onto the inoculated agar.

Alternaria alternata = test: as above; format: cell-based; details: volatile headspace exposure
Experimental: [The procedure below names another organism; the source lists this organism under the same test.] as §1

[1] = tested on: Escherichia coli (ATCC #25922); test: in vitro inhibition assay for volatile antimicrobial compounds against bacteria (LB agar); format: cell-based; details: volatile headspace exposure, 2 days at 23° C.
Experimental: 12-well (6.5 ml volume per well) microtiter plates are used for the in vitro inhibition assay for volatile antimicrobial compounds. A 3-ml volume of full-strength L^B Agar is added to each well. After cooling, 15 μL of Escherichia coli (ATCC #25922) adjusted to an optical density of 0.02 to 0.035, and further diluted 1/10 is pipetted to the center of the agar. The plate is tilted to distribute bacteria uniformly. Whatman #1 filter disks (1.5 cm; Cat. No. 1001-0155) are placed on the underside of a polyethylene PCR plate sealing film. […] The acetone is permitted to evaporate for 5 minutes. The headspace around the Escherichia coli inoculum is then sealed inside the well by the film with the adhering disk containing the antimicrobial, anti-decay, anti-spoilage, or pathogen control agent. Plates are inverted, placed over the treated disks and sealed to prevent any of the chemical from flaking from the disk and falling onto the inoculated agar. After 2 days of incubation at 23° C., cultures were evaluated for colony growth relative to control.

[2] = tested on: Botrytis cinerea (ATCC #204446); test: Strawberry in vivo analysis, volatile bioassay on wound-inoculated strawberry; design: species or system Botrytis cinerea on strawberry
Experimental: In order to assess the in vivo activity of volatile antimicrobial compounds, a volatile bioassay is developed using strawberry. Fruit (6 to 8) are placed inside a 1 lb clamshell (Packaging Direct Inc.; Product #4341699) with the calyx facing downward. The strawberry fruit are wound-inoculated by pipetting 20 μL of 1×10^6 spore per ml Botrytis cinerea (ATCC #204446) into a wound approximately 5 mm deep and 2.6 mm in width. The clamshell is placed inside a 2.55 L plastic container (Snapware; Model #1098421). A Whatman #1 filter paper (4.25 cm; Cat. No. 1001-042) is placed on a watchglass, which is then placed on top of the closed clamshell lid. For determination of the MIC, test compounds are diluted in acetone, and 400 μl of the solution is added to disks, in duplicate, in a dose dependent manner (for example 0.4 to 50 mg/liter). The acetone is permitted to evaporate for 5 minutes. The plastic containers are then closed and placed for 3 days at 21° C. Clamshells are then removed from the treatment plastic container and placed into separate larger secondary containers for a further 3 days of evaluation at 21° C. During these 3 days, fruit are evaluated daily for incidence and severity of disease and symptoms of phytotoxicity.

[3] = tested on: Botrytis cinerea (ATCC #204446); test: in vitro inhibition assay for volatile antimicrobial compounds (headspace, PDA agar); format: cell-based; details: Botrytis cinerea, ATCC204446, 72 h, volatile headspace exposure, 3 days at 23° C.
Experimental: as §1

Monilinia fructicola = test: as above; format: cell-based; details: volatile headspace exposure
Experimental: [The procedure below names another organism; the source lists this organism under the same test.] as §1

[4] = tested on: Botrytis cinerea (ATCC #204446); test: Grape in vivo analysis, volatile bioassay on inoculated green table grape; design: species or system Botrytis cinerea on green table grape
Experimental: In order to assess the in vivo activity of volatile antimicrobial compounds, a volatile bioassay is developed using green table grape. Fruit are removed from the rachis, and 16 to 20 fruit are placed inside a 1 dry pint clamshell (Produce Packaging; Product #03231004KZ) with the stem wound facing upwards. The grapes are inoculated by pipetting 20 μL of 1×10^6 spore per ml Botrytis cinerea (ATCC #204446) into the stem wound. The clamshell is placed inside a 2.55 L plastic container (Snapware; Model #1098421). A Whatman #1 filter paper (4.25 cm; Cat. No. 1001-042) is placed on a watchglass, which is then placed on top of the closed clamshell lid. For determination of the MIC, test compounds are diluted in acetone, and 400 μl of the solution is added to disks, in duplicate, in a dose dependent manner (for example 0.4 to 50 mg/liter). The acetone is permitted to evaporate for 5 minutes. The plastic containers are then closed and placed for 3 days at 21° C. Clamshells are then removed from the treatment plastic container and placed into separate larger secondary containers for a further 3 days of evaluation at 21° C. During these 3 days, fruit are evaluated daily for incidence and severity of disease and symptoms of phytotoxicity.

[5] = symptoms of phytotoxicity evaluated daily

Compound | EC50 (Glomerella cingulata) [µg/mL] | MIC (Glomerella cingulata) [µg/mL] | EC50 (Penicillium expansum) [µg/mL] | MIC (Penicillium expansum) [µg/mL] | EC50 (Alternaria alternata) [µg/mL] | MIC (Alternaria alternata) [µg/mL] | antimicrobial activity against Escherichia coli (colony growth relative to control) [1] | phytotoxicity in strawberry in vivo analysis [2, 5] | antimicrobial activity against Botrytis cinerea in strawberry in vivo analysis ([2]; wound-inoculated, 3 days treatment at 21° C. plus 3 days evaluation) | MIC [3] [µg/mL] | EC50 ([3]; growth relative to control) [µg/mL] | EC50 (Monilinia fructicola) [µg/mL] | MIC (Monilinia fructicola) [µg/mL] | antimicrobial activity against Botrytis cinerea in grape in vivo analysis ([4]; stem wound inoculated, 3 days treatment at 21° C. plus 3 days evaluation) | phytotoxicity in grape in vivo analysis [4, 5]
CC(C)(COB1OCc2ccccc21)COB1OCc2ccccc21 [Compound 2, 1,1′-((2,2-dimethylpropane-1,3-diyl)bis(oxy))bis(1,3-dihydrobenzo[c][1,2]oxaborole)] | 9.1 (≈ 27.1 µM) | 143 (≈ 425 µM) | 12.2 (≈ 36.3 µM) | 71.4 (≈ 212 µM) | 2.3 (≈ 6.85 µM) | 8.9 (≈ 26.5 µM) | – | – | – | – | – | – | – | – | –
c1ccc2c(c1)COB2OCCOB1OCc2ccccc21 [Compound 1, 1,2-bis(benzo[c][1,2]oxaborol-1(3H)-yloxy)ethane] | 11.1 (≈ 37.8 µM) | 143 (≈ 486 µM) | 2.5 (≈ 8.51 µM) | 8.9 (≈ 30.3 µM) | < 0.6 | 8.9 (≈ 30.3 µM) | good antimicrobial activity | no phytotoxicity | good antimicrobial activity | 2.2 (≈ 7.48 µM) | 0.9 (≈ 3.06 µM) | 6.8 (≈ 23.1 µM) | 35.7 (≈ 121 µM) | good antimicrobial activity | no phytotoxicity
